Molecules are shown by their SMILES.

Experimental findings from patent publication EP4790046A1, “NOVEL COMPOUND DERIVED FROM MYRISTICA FRAGRANS, AND ANTICANCER COMPOSITION COMPRISING SAME” (Korea Institute of Science and Technology, priority 2023, dated 2025) are described below.

One data set deals with AGS. The data set is described as follows: alamarBlue cell viability (survival rate, IC50), AGS. The settings on record: Homo sapiens; AGS (gastric cancer), compound 10 µM, 48 hours; read-out: Cancer cell line survival rate (%). It is filed as cell-based. The source says:
(§1) A p-value < 0.05 was considered statistically significant.
Background: The colour change of resazurin is a common sign of viable cells or microbes.

The next data set concerns 23132/87. The data set is described as follows: alamarBlue cell viability (survival rate, IC50), 23132/87. The following applies: 23132/87 (gastric cancer), compound 10 µM, 48 hours; read-out: Cancer cell line survival rate (%). In kind it is cell-based.
Description: as §1

In a further data set the test system is SNU-719. The data set is described as follows: alamarBlue cell viability (survival rate, IC50), SNU-719. It is filed as cell-based. The following applies: SNU-719 (gastric cancer), compound 10 µM, 48 hours; read-out: Cancer cell line survival rate (%).
Description: as §1

The test system of a further data set is SNU-81. The data set can be described thus: alamarBlue cell viability (survival rate, IC50), SNU-81. It is filed as cell-based. The following applies: SNU-81 (colorectal cancer), compound 10 µM, 48 hours; read-out: Cancer cell line survival rate (%).
Description: as §1

A further data set has as its system SNU-C5. The data set can be described thus: alamarBlue cell viability (survival rate, IC50), SNU-C5. It is filed as cell-based. The following applies: SNU-C5 (colorectal cancer), compound 10 µM, 48 hours; read-out: Cancer cell line survival rate (%).
Description: as §1

In another data set the test system is SW48. The data set is described as follows: alamarBlue cell viability (survival rate, IC50), SW48. It is filed as cell-based. The settings on record: Homo sapiens; SW48 (colorectal cancer), compound 10 µM, 48 hours; read-out: Cancer cell line survival rate (%).
Description: as §1

For a further data set, the system named is SNU201. The data set is described as follows: alamarBlue cell viability (survival rate), SNU201. It is filed as cell-based. The following applies: SNU201 (glioblastoma), compound 10 µM, 48 hours; read-out: Cancer cell line survival rate (%).
Description: as §1

For a further data set, the system named is SNU466. The data set can be described thus: alamarBlue cell viability (survival rate), SNU466. It is filed as cell-based. The settings on record: SNU466 (glioblastoma), compound 10 µM, 48 hours; read-out: Cancer cell line survival rate (%).
Description: as §1

In the next data set the test system is HepG2. The data set is described as follows: alamarBlue cell viability (survival rate), HepG2. The following applies: Homo sapiens; HepG2 (liver cancer), compound 10 µM, 48 hours; read-out: Cancer cell line survival rate (%). In kind it is cell-based.
Description: as §1

The next data set concerns MiaPaCa-2. The data set can be described thus: alamarBlue cell viability (survival rate), MiaPaCa-2. In kind it is cell-based. The settings on record: Homo sapiens, MIA PaCa-2; MiaPaCa-2 (pancreatic cancer), compound 10 µM, 48 hours; read-out: Cancer cell line survival rate (%).
Description: as §1

Data set [1] deals with various cancer cell lines. The data set can be described thus: alamarBlue cell viability, statements across the cell line panel. The following applies: for anticancer activity: various cancer cell lines.
Description: AGS, SW48, HepG2, and MiaPaCa-2 was purchased from ATCC (American Type Culture Collection, USA), SNU cell lines from the Korean Cell Line Bank (KCLB, Korea), and 23132/87 from the Leibniz Institute DSMZ - German Collection of Microorganisms and Cell Cultures GmbH (DSMZ, Germany). All cell lines were cultured in RPMI-1640 medium (HyClone, USA) supplemented with 10% FBS (Gibco, USA) and 1% penicillin-streptomycin (HyClone, USA) under conditions of 5% CO2, 37°C.
Cells were seeded at a density of 5 × 10^3cells/well in a 96-well plate for 24 hours, then treated with the compound at an appropriate concentration (10 µM) for 48 hours. After treatment, alamarBlue reagent was added at a volume ratio of 1/10 of the treatment volume and incubated for 4 hours in a 37°C cell incubator (protected from direct light). Cell viability was then determined by measuring absorbance values at 570 nm and 600 nm using a microplate reader. The anticancer effects of candidate compounds were evaluated by assessing the cell viability (%) of cells treated at specific concentrations and the half-maximal inhibitory concentration (IC50) of each natural product. Doxorubicin and oxaliplatin were used as positive controls for gastric and colorectal cancer, respectively.
Statistical analysis was performed using R software (version 4.2.2) (R Core Team). Differences between groups were assessed using student's t-test or 1-way ANOVA followed by post-hoc Tukey HSD test. A p-value < 0.05 was considered statistically significant.
Further, to measure the IC50 values against six cancer cell lines.

Turning to `C=CCc1cc(OC)c(O[C@@H](C)[C@H](Oc2cc(CCCCCCCCC(=O)c3c(O)cccc3O)ccc2O)c2ccc(O)c(OC)c2)c(OC)c1` [Compound 10, Myricone K], the viability at 10 µM in the data set on AGS came out at 4.14%; in the data set with 23132/87 it was 2.77%; in the data set on SNU-719, 1.85%; in the data set with SNU-81 it was 16.1%; in the data set on SNU-C5, 4.94%; in the data set on SW48, 2.67%. Also, the viability at 10 µM with SNU201 worked out at 3.28%; with SNU466, 0.6%; in the data set with HepG2, 8.7%; in the data set with MiaPaCa-2, 4.3%. Also, the anticancer activity entry in data set [1] is on record as “high anticancer activity”.
As to `C=CCc1cc(OC)c(O[C@H](C)[C@H](Oc2cc(CCCCCCCCC(=O)c3c(O)cccc3O)ccc2O)c2ccc(O)c(OC)c2)c(OC)c1` [Compound 11, Myricone L], the viability at 10 µM with AGS is 20.3%; with 23132/87 it was 19%; with SNU-719, 12.5%; in the data set with SNU-81, 92.5%; in the data set on SNU-C5, 13.4%; in the data set with SW48, 5.57%. For the same molecule, the viability at 10 µM in the data set with SNU201 is 32.8%; in the data set with SNU466 it was 0.52%; in the data set with HepG2, 25.3%; with MiaPaCa-2, 22%. Further, the cytotoxic effects result in data set [1] (gastric cancer cell lines and colorectal cancer cell lines, 10 µM, 48 hours) is “excellent cytotoxic effects”. Also, the anticancer activity result in [1] is “high anticancer activity”.
On to `C=CCc1cc(OC)c(OC(C)C(Oc2cccc(O)c2C(=O)CCCCCCCCc2ccc(O)cc2)c2ccc(O)c(OC)c2)c(OC)c1` (stereo not drawn) [Compound 12, Myricone M], for which the viability at 10 µM was found to be 7.89% in the data set on AGS; 0.67% in the data set on 23132/87; 0.53% in the data set on SNU-719; 2.27% with SNU-81; 1.98% in the data set on SNU-C5; 2.52% in the data set on SW48. The viability at 10 µM is 0.75% with SNU201, 0.64% in the data set on SNU466, 1.23% in the data set on HepG2 and 3.46% with MiaPaCa-2. Besides, the anticancer activity result in [1] was “high anticancer activity”.
Regarding `COc1cc(C(c2ccc(O)c(C(=O)CCCCCCCCc3ccc(O)c(O)c3)c2O)C(C)C(C)Cc2ccc3c(c2)OCO3)ccc1O` (stereo not drawn) [Compound 14, Myricone O], the viability at 10 µM in the data set on AGS turned out to be 81.4%; with 23132/87, 78.2%; in the data set with SNU-719, 71.6%; in the data set with SNU-81, 104%; in the data set with SNU-C5, 18.8%; with SW48, 31.1%. The viability at 10 µM with SNU201 came out at 101%; in the data set on SNU466, 56.1%; in the data set with HepG2 it was 67%; with MiaPaCa-2 it was 87.8%. Further, the anticancer activity result in data set [1] is on record as “high anticancer activity”.
As for `COc1cc(CC(C)C(C)C(c2ccc(O)c(OC)c2)c2ccc(O)c(C(=O)CCCCCCCCc3ccc(O)c(O)c3)c2O)ccc1O` (stereo not drawn) [Compound 15, Myricone P], the viability at 10 µM in the data set with AGS was determined as 8.49%; with 23132/87 it was 1.45%; in the data set on SNU-719, 2.14%; with SNU-81 it was 6.63%; in the data set with SNU-C5, 2.62%; with SW48, 3.93%. Besides, the viability at 10 µM with SNU201 was determined as 31.4%; with SNU466 it was 0.99%; in the data set with HepG2 it was 3.18%; in the data set on MiaPaCa-2 it was 4.32%. The anticancer activity result in data set [1] is “high anticancer activity”.
Consider `COc1cc([C@H]2Oc3c(OC)cc(/C=C/Cc4cc(O)c(O)cc4CCCCCCCCC(=O)c4c(O)cccc4O)cc3[C@@H]2C)ccc1O` [Compound 17, Myricone Q], for which the viability at 10 µM was determined as 80.5% with AGS; 85% in the data set on 23132/87; 54.9% with SNU-719; 113% in the data set with SNU-81; 58.5% in the data set with SNU-C5; 60.2% with SW48. Also, the viability at 10 µM with SNU201 came to 105%; with SNU466, 45.6%; in the data set with HepG2, 108%; in the data set on MiaPaCa-2, 59.9%. For the same molecule, the anticancer activity entry in data set [1] is reported as “high anticancer activity”.
`COc1ccc(/C=C/Cc2ccc(O)c(C(=O)CCCCCCCCc3ccc(O)c(O)c3)c2O)cc1OC` [Compound 21, Myricone Z]: the viability at 10 µM was determined as 6.86% with AGS; 2.4% in the data set on 23132/87; 4.6% with SNU-719; 33.6% in the data set with SNU-81; 6.53% in the data set with SNU-C5; 3.51% in the data set with SW48. Moreover, the viability at 10 µM was 67.8% in the data set on SNU201, 0.95% with SNU466, 6.05% with HepG2 and 7.58% in the data set on MiaPaCa-2. For the same molecule, the anticancer activity result in data set [1] is reported as “high anticancer activity”.
